Patent EP2530078A1, “THIAZOLE DERIVATIVE” (Takeda Pharmaceutical Company Limited, priority 2010, dated 2011)
Where a name gives a salt, the structure may show the parent alone.

Biological target: T1, human GPR52 (Homo sapiens, UniProt Q9Y2T5)
T1 construct: expressed in transfected cells; host or cells: CHO(dhfr-) cells
Assay: Increase of intracellular cAMP concentration in human GPR52-expressing CHO cell (AlphaScreen cAMP assay)
Format: cell-based
Conditions: 0.5 h; test compound 10 µm, 37°C, 30 min, human GPR52-expressing CHO(dhfr-) cells; 100% = cAMP with 1 µM N-(2-hydroxyethyl)-3-[2-[3-(trifluoromethyl)benzyl]-1-benzofuran-4-yl]benzamide, 0% = DMSO; read-out: GPR52 agonist activity (%)
Procedure: Increase of intracellular cAMP concentration in human GPR52-expressing CHO cell
Using OptiPlate-384 (PerkinElmer Inc.), 1×10^4 human GPR52-expressing CHO(dhfr-) cells were incubated together with a test compound ([…]) in an assay buffer (30 µL, HBSS (containing Ca^2+ and Mg^2+), 0.5% BSA, 100 µM IBMX, 100 µM Ro20-1724, 5 mM HEPES (pH 7.55)) at 37°C for 30 min. Thereafter, according to the protocol of AlphaScreen cAMP Assay Kit (PerkinElmer Inc.), the intracellular cAMP concentration was measured by EnVision (PerkinElmer Inc.). The GPR52 agonist activity was calculated, assuming the intracellular cAMP concentration in the presence of 1 µM N-(2-hydroxyethyl)-3-[2-[3-(trifluoromethyl)benzyl]-1-benzofuran-4-yl]benzamide to be 100% and assuming the intracellular cAMP concentration when DMSO was added instead of the test compound to be 0%.

T1 sequence (Q9Y2T5 whole entry): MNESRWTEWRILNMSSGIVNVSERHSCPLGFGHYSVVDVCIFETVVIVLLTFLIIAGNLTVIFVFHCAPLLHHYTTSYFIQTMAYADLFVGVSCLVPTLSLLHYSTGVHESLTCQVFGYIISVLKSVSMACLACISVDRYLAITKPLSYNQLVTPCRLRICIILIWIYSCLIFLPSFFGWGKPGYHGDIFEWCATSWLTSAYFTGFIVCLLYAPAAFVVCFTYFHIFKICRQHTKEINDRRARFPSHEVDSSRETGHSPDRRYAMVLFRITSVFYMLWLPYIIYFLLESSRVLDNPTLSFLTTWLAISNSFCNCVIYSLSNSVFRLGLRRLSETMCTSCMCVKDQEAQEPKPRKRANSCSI

Compound | activation at 10 µM
Cc1nc(Cc2cc(F)cc(C(F)(F)F)c2)sc1NC(=O)c1ccnn1C [Example 181, N-{2-[3-fluoro-5-(trifluoromethyl)benzyl]-4-methyl-1,3-thiazol-5-yl}-1-methyl-1H-pyrazole-5-carboxamide] | 91%
Cc1nc(Cc2cc(F)cc(Cl)c2)sc1NC(=O)C1CCS(=O)(=O)CC1 [Example 208, N-[2-(3-chloro-5-fluorobenzyl)-4-methyl-1,3-thiazol-5-yl]-tetrahydro-2H-thiopyran-4-carboxamide 1,1-dioxide] | 72%
Cc1nc(C(O)c2cccc(C(F)(F)F)c2)sc1NC(=O)c1ccnn1C (stereo not drawn) [Example 210, N-(2-{hydroxy[3-(trifluoromethyl)phenyl]methyl}-4-methyl-1,3-thiazol-5-yl)-1-methyl-1H-pyrazole-5-carboxamide] | 82%
Cc1nc(Cc2cc(F)cc(Cl)c2)sc1NC(=O)C1CCS(=O)(=O)C1 (stereo not drawn) [Example 216, N-[2-(3-chloro-5-fluorobenzyl)-4-methyl-1,3-thiazol-5-yl]-tetrahydrothiophene-3-carboxamide 1,1-dioxide] | 77%
COc1cccc(Cc2nc(C)c(NC(=O)c3ccnn3C)s2)c1 [Example 219, N-[2-(3-methoxybenzyl)-4-methyl-1,3-thiazol-5-yl]-1-methyl-1H-pyrazole-5-carboxamide] | 82%
Cc1nc(Cc2cc(F)cc(F)c2)sc1NC(=O)c1ccnn1C [Example 220, N-[2-(3,5-difluorobenzyl)-4-methyl-1,3-thiazol-5-yl]-1-methyl-1H-pyrazole-5-carboxamide] | 79%
Cc1cccc(Cc2nc(C)c(NC(=O)c3ccnn3C)s2)c1 [Example 221, 1-methyl-N-[4-methyl-2-(3-methylbenzyl)-1,3-thiazol-5-yl]-1H-pyrazole-5-carboxamide] | 90%
Cc1nc(Cc2cccc(Br)c2)sc1NC(=O)c1ccnn1C [Example 224, N-[2-(3-bromobenzyl)-4-methyl-1,3-thiazol-5-yl]-1-methyl-1H-pyrazole-5-carboxamide] | 80%
Cc1nc(Cc2cccc(C3CC3)c2)sc1NC(=O)c1ccnn1C [Example 227, N-[2-(3-cyclopropylbenzyl)-4-methyl-1,3-thiazol-5-yl]-1-methyl-1H-pyrazole-5-carboxamide] | 101%
Cc1nc(Cc2cc(F)cc(Cl)c2)sc1NC(=O)c1cccc(S(C)(=O)=O)c1 [Example 228, N-[2-(3-chloro-5-fluorobenzyl)-4-methyl-1,3-thiazol-5-yl]-3-(methylsulfonyl)benzamide] | 69%
Cc1nc(Cc2cccc(S(C)(=O)=O)c2)sc1NC(=O)c1ccnn1C [Example 233, 1-methyl-N-{4-methyl-2-[3-(methylsulfonyl)benzyl]-1,3-thiazol-5-yl}-1H-pyrazole-5-carboxamide] | 81%
Cc1nc(Cc2cc(F)cc(Cl)c2)sc1NC(=O)c1cc(CN2CCOCC2)nn1C [Example 238, N-[2-(3-chloro-5-fluorobenzyl)-4-methyl-1,3-thiazol-5-yl]-1-methyl-3-(morpholinomethyl)-1H-pyrazole-5-carboxamide monohydrochloride] | 80%
Cc1nc(Cc2cc(F)cc(Cl)c2)sc1NC(=O)c1cc(Cn2ccnc2)nn1C [Example 243, N-[2-(3-chloro-5-fluorobenzyl)-4-methyl-1,3-thiazol-5-yl]-3-[(1H-imidazol-1-yl)methyl]-1-methyl-1H-pyrazole-5-carboxamide] | 77%
Cc1nc(Cc2cc(F)cc(C3CC3)c2)sc1NC(=O)c1ccnn1C [Example 249, N-[2-(3-cyclopropyl-5-fluorobenzyl)-4-methyl-1,3-thiazol-5-yl]-1-methyl-1H-pyrazole-5-carboxamide] | 99%
Cc1nc(Cc2cc(F)cc(Cl)c2)sc1NC(=O)Cn1cnnn1 [Example 252, N-[2-(3-chloro-5-fluorobenzyl)-4-methyl-1,3-thiazol-5-yl]-2-(1H-tetrazol-1-yl)acetamide] | 72%

Second part, the compound after the results:

activation at 10 µM | Compound
99% | CC(=O)Nc1cn(C)c(C(=O)Nc2sc(Cc3cc(F)cc(Cl)c3)nc2C)n1 [Example 176, 4-(acetylamino)-N-[2-(3-chloro-5-fluorobenzyl)-4-methyl-1,3-thiazol-5-yl]-1-methyl-1H-imidazole-2-carboxamide]
86% | CCc1cc(C(=O)Nc2sc(Cc3cc(F)cc(Cl)c3)nc2C)n(C)n1 [Example 177, N-[2-(3-chloro-5-fluorobenzyl)-4-methyl-1,3-thiazol-5-yl]-3-ethyl-1-methyl-1H-pyrazole-5-carboxamide]
80% | Cc1nc(Cc2cc(F)cc(Cl)c2)sc1NC(=O)c1c(C)ncn1C [Example 179, N-[2-(3-chloro-5-fluorobenzyl)-4-methyl-1,3-thiazol-5-yl]-1,4-dimethyl-1H-imidazole-5-carboxamide]
75% | Cc1nc(Cc2cc(F)cc(Cl)c2)sc1NC(=O)c1ncn(C)c1C [Example 180, N-[2-(3-chloro-5-fluorobenzyl)-4-methyl-1,3-thiazol-5-yl]-1,5-dimethyl-1H-imidazole-4-carboxamide]
87% | Cc1nc(Cc2cc(F)cc(Cl)c2)sc1NC(=O)c1scnc1C [Example 184, N-[2-(3-chloro-5-fluorobenzyl)-4-methyl-1,3-thiazol-5-yl]-4-methyl-1,3-thiazole-5-carboxamide]
81% | Cc1nc(Cc2cc(F)cc(Cl)c2)sc1NC(=O)c1cccn1C [Example 185, N-[2-(3-chloro-5-fluorobenzyl)-4-methyl-1,3-thiazol-5-yl]-1-methyl-1H-pyrrole-2-carboxamide]
94% | Cc1nc(Cc2cc(F)cc(Cl)c2)sc1NC(=O)c1c(C)noc1C [Example 186, N-[2-(3-chloro-5-fluorobenzyl)-4-methyl-1,3-thiazol-5-yl]-3,5-dimethylisoxazole-4-carboxamide]
74% | Cc1nc(Cc2cc(F)cc(Cl)c2)sc1NC(=O)c1c(Cl)cnn1C [Example 206, 4-chloro-N-[2-(3-chloro-5-fluorobenzyl)-4-methyl-1,3-thiazol-5-yl]-1-methyl-1H-pyrazole-5-carboxamide]
71% | Cc1nc(Cc2cc(F)cc(Cl)c2)sc1NC(=O)c1cc(CC#N)nn1C [Example 230, N-[2-(3-chloro-5-fluorobenzyl)-4-methyl-1,3-thiazol-5-yl]-3-(cyanomethyl)-1-methyl-1H-pyrazole-5-carboxamide]
78% | Cc1nc(Cc2cc(F)cc(Cl)c2)sc1NC(=O)c1ccnn1CC(N)=O [Example 234, 1-(carbamoylmethyl)-N-[2-(3-chloro-5-fluorobenzyl)-4-methyl-1,3-thiazol-5-yl]-1H-pyrazole-5-carboxamide]
79% | COc1cc(C(=O)Nc2sc(Cc3cc(F)cc(Cl)c3)nc2C)n(C)n1 [Example 235, N-[2-(3-chloro-5-fluorobenzyl)-4-methyl-1,3-thiazol-5-yl]-3-methoxy-1-methyl-1H-pyrazole-5-carboxamide]
76% | Cc1nc(Cc2cc(F)cc(Cl)c2)sc1NC(=O)c1cc(CS(C)(=O)=O)nn1C [Example 242, N-[2-(3-chloro-5-fluorobenzyl)-4-methyl-1,3-thiazol-5-yl]-1-methyl-3-[(methylsulfonyl)methyl]-1H-pyrazole-5-carboxamide]
70% | Cc1nc(Cc2cc(F)cc(Cl)c2)sc1NC(=O)c1cc(S(C)(=O)=O)nn1C [Example 246, N-[2-(3-chloro-5-fluorobenzyl)-4-methyl-1,3-thiazol-5-yl]-1-methyl-3-(methylsulfonyl)-1H-pyrazole-5-carboxamide]
69% | Cc1nc(Cc2cc(F)cc(Cl)c2)sc1NC(=O)c1cc([S+](C)[O-])nn1C (stereo not drawn) [Example 247, N-[2-(3-chloro-5-fluorobenzyl)-4-methyl-1,3-thiazol-5-yl]-1-methyl-3-(methylsulfinyl)-1H-pyrazole-5-carboxamide]

Same assay, conditions: test compound 10 µm, 37°C, 30 min, human GPR52-expressing CHO(dhfr-) cells; 100% = cAMP with 1 µM N-(2-hydroxyethyl)-3-[2-[3-(trifluoromethyl)benzyl]-1-benzofuran-4-yl]benzamide, 0% = DMSO

Compound | GPR52 agonist activity (%)
N^4-[2-(3-chloro-5-fluorobenzyl)-4-methyl-1,3-thiazol-5-yl]piperidine-1,4-dicarboxamide [Example 254] | 77%
